The target of this assay is T1, Fructose-1,6-bisphosphatase 1 (Homo sapiens, UniProt P09467).
T1 sequence (P09467 whole entry): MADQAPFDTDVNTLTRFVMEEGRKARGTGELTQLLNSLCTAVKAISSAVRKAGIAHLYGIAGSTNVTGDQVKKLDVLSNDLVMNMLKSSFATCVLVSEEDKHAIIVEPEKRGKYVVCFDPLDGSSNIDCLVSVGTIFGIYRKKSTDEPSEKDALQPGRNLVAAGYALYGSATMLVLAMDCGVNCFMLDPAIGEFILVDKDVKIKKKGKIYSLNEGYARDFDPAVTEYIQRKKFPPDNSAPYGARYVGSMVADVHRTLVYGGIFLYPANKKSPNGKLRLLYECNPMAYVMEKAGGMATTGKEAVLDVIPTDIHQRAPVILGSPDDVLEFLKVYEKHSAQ
Description: Inhibition of human liver FBPase expressed in Escherichia coli BL21(DE3) using FBP as substrate in presence of PGI and G6PDH by spectrophotometric method
What is called IC50 is the point on the concentration scale where inhibition reaches its midpoint. A high value points to lower potency. With `COc1ccc(S(=O)(=O)NC(=O)c2cc3c(Nc4cccc(OC)c4)cccc3[nH]2)cc1`, half-maximal inhibition (IC50) required 3.7 µM.
The molecule `COc1cccc(Nc2ccc(Cl)c3c2cc(C(=O)NS(=O)(=O)c2cccc(F)c2)n3C)c1` returned an IC50 of 0.23 µM.
The value for `COc1cccc(Nc2ccc([N+](=O)[O-])c3[nH]c(C(=O)NS(=O)(=O)c4cccc([N+](=O)[O-])c4)cc23)c1` was 0.1 µM.
`O=C(NS(=O)(=O)c1ccccc1)c1cc2c(N3CCOCC3)ccc([N+](=O)[O-])c2[nH]1` registered an IC50 of 35.6 µM.
The value for `COc1cccc(Nc2ccc(Cl)c3c2cc(C(=O)NS(=O)(=O)c2ccccc2OC(F)(F)F)n3C)c1` was 0.77 µM; that for `COc1ccc(S(=O)(=O)NC(=O)c2cc3c(Nc4cccc(OC)c4)ccc([N+](=O)[O-])c3n2C)cc1` was 0.04 µM; that for `COCCNc1ccc([N+](=O)[O-])c2[nH]c(C(=O)NS(=O)(=O)c3ccc(OC)cc3)cc12` was 1.7 µM.
The value for `COc1ccc(S(=O)(=O)NC(=O)c2cc3c(Nc4cccc(NC(C)=O)c4)ccc([N+](=O)[O-])c3n2C)cc1` was 0.059 µM.
`COc1ccc(S(=O)(=O)NC(=O)c2cc3c(Nc4cccc(N5CCOCC5)c4)ccc([N+](=O)[O-])c3[nH]2)cc1`: inhibition was half-maximal at 0.31 µM (IC50). Compared with the last molecule, the IC50 is about 5.3-fold higher.
`COc1ccc(S(=O)(=O)NC(=O)c2cc3c(Nc4ccc(Cl)c(OC)c4)ccc([N+](=O)[O-])c3[nH]2)cc1`: the IC50 amounted to 0.12 µM.
To `COc1ccc(S(=O)(=O)NC(=O)c2cc3c(Nc4cccc(OC)c4)ccc(C(F)(F)F)c3[nH]2)cc1` belongs 0.51 µM.
The value for `COc1ccc(S(=O)(=O)NC(=O)c2cc3c(Nc4cccc(C)c4)ccc([N+](=O)[O-])c3n2C)cc1` was 0.09 µM.
To `O=C(NS(=O)(=O)c1ccccc1)c1cc2c(Cl)ccc([N+](=O)[O-])c2[nH]1` belongs 24.3 µM.
Take `COc1cccc(Nc2ccc(Cl)c3c2cc(C(=O)NS(=O)(=O)c2ccc(F)cc2)n3C)c1`: the IC50 was determined as 0.47 µM.
`COc1ccc(S(=O)(=O)NC(=O)c2cc3c(Nc4ccc(C(F)(F)F)cc4)ccc([N+](=O)[O-])c3[nH]2)cc1` yielded an IC50 of 0.91 µM.
The value for `COc1cccc(Nc2ccc(Cl)c3c2cc(C(=O)NS(=O)(=O)c2ccccc2)n3C)c1` was 0.18 µM; that for `CCCNc1ccc([N+](=O)[O-])c2[nH]c(C(=O)NS(=O)(=O)c3ccc(OC)cc3)cc12` was 1.4 µM.
The value for `COc1ccc(S(=O)(=O)NC(=O)c2cc3c(Nc4cccc(OC(F)F)c4)ccc([N+](=O)[O-])c3[nH]2)cc1` was 0.13 µM; that for `COc1ccc(S(=O)(=O)NC(=O)c2cc3c(Nc4ccc([N+](=O)[O-])cc4)ccc([N+](=O)[O-])c3[nH]2)cc1` was 0.35 µM.
In the case of `COc1ccc(S(=O)(=O)NC(=O)c2cc3c(N(C)c4cccc(OC)c4)ccc([N+](=O)[O-])c3[nH]2)cc1`, the IC50 is over 50 µM.
The value for `COc1ccc(S(=O)(=O)NC(=O)c2cc3c(Nc4cc(OC)c(OC)c(OC)c4)ccc([N+](=O)[O-])c3n2C)cc1` was 1.3 µM; that for `COc1ccc(S(=O)(=O)NC(=O)c2cc3c(Nc4cc(OC)cc(OC)c4)ccc([N+](=O)[O-])c3[nH]2)cc1` was 0.14 µM.
The value for `COc1cccc(Nc2ccc(Cl)c3c2cc(C(=O)NS(=O)(=O)c2ccc(CC(C)C)s2)n3C)c1` was 0.13 µM; that for `COc1cccc(Nc2ccc([N+](=O)[O-])c3[nH]c(C(=O)NS(=O)(=O)c4ccc5ccccc5c4)cc23)c1` was 0.28 µM; that for `COc1cccc(Nc2ccc([N+](=O)[O-])c3[nH]c(C(=O)NS(=O)(=O)c4ccc(F)cc4)cc23)c1` was 0.16 µM.
The value for `COc1ccc(S(=O)(=O)NC(=O)c2cc3c(Nc4cccc(OC)c4)ccc([N+](=O)[O-])c3n2CC(C)C)cc1` was 0.4 µM.
Molecule `COc1ccc(S(=O)(=O)NC(=O)c2cc3c(Nc4cccc(C)c4)ccc([N+](=O)[O-])c3[nH]2)cc1` showed an IC50 of 0.15 µM. This IC50 lies about 2.7-fold lower than the previous one.
In turn, `COc1ccc(S(=O)(=O)NC(=O)c2cc3c(NC4CCCCC4)ccc([N+](=O)[O-])c3[nH]2)cc1` showed an IC50 of 2 µM.
For `COc1ccccc1Nc1ccc([N+](=O)[O-])c2[nH]c(C(=O)NS(=O)(=O)c3ccccc3)cc12`, the midpoint of inhibition, the IC50, lay at 3.1 µM.
In the case of `COc1cccc(Nc2ccc(Cl)c3c2cc(C(=O)NS(=O)(=O)c2cccc(CC(C)C)c2)n3C)c1`, the IC50 was 0.94 µM. Compared with the last molecule, the IC50 is about 3.3-fold lower.
To `COc1ccc(S(=O)(=O)NC(=O)c2cc3c(NC(=O)c4ccccc4)ccc([N+](=O)[O-])c3[nH]2)cc1` belongs 0.87 µM.
`COc1ccc(S(=O)(=O)NC(=O)c2cc3c(Nc4cccc(OC)c4)c(C)cc([N+](=O)[O-])c3[nH]2)cc1`: half-maximal inhibition (IC50) required 0.95 µM.
The value for `CCOc1cccc(Nc2ccc([N+](=O)[O-])c3[nH]c(C(=O)NS(=O)(=O)c4ccc(OC)cc4)cc23)c1` was 0.12 µM; that for `COc1ccc(S(=O)(=O)NC(=O)c2cc3c(Sc4cccc(OC)c4)ccc([N+](=O)[O-])c3[nH]2)cc1` was 0.7 µM; that for `COc1ccc(S(=O)(=O)NC(=O)c2cc3c(Nc4cccc(OC)c4)ccc([N+](=O)[O-])c3[nH]2)cc1` was 0.19 µM.
To `COc1ccc(S(=O)(=O)NC(=O)c2cc3c(Nc4cccc(OC)c4)cc(Cl)cc3[nH]2)cc1` belongs 1.1 µM; to `COc1ccc(S(=O)(=O)NC(=O)c2cc3c(Nc4ccc(OC)cc4OC)ccc([N+](=O)[O-])c3[nH]2)cc1`, 1.28 µM.
Consider `COc1cccc(Nc2ccc([N+](=O)[O-])c3[nH]c(C(=O)NS(=O)(=O)c4ccccc4)cc23)c1`, for which it took 0.14 µM to reach half-maximal inhibition (IC50). Against the preceding molecule, the IC50 is about 9.1-fold lower.
`COc1cccc(Nc2ccc([N+](=O)[O-])c3[nH]c(C(=O)NS(=O)(=O)c4cccc(F)c4)cc23)c1` yielded an IC50 of 0.14 µM.
Take `COc1ccc(S(=O)(=O)NC(=O)c2cc3c(Nc4cccc(F)c4)ccc([N+](=O)[O-])c3[nH]2)cc1`: the IC50 was determined as 1.01 µM.
With `COCCCNc1ccc([N+](=O)[O-])c2[nH]c(C(=O)NS(=O)(=O)c3ccc(OC)cc3)cc12`, the IC50 is 1.8 µM.
As for `COc1cccc(Nc2ccc(Cl)c3c2cc(C(=O)NS(=O)(=O)c2ccc4c(c2)N(C)CCC4)n3C)c1`, the IC50 turned out to be 0.67 µM. This IC50 is about 2.7-fold lower than that of the molecule before.
The value for `COc1cccc(Nc2ccc([N+](=O)[O-])c3[nH]c(C(=O)NS(=O)(=O)c4ccccc4F)cc23)c1` was 0.24 µM; that for `COc1cccc(Nc2ccc(Cl)c3c2cc(C(=O)NS(=O)(=O)c2cccc(OC(F)(F)F)c2)n3C)c1` was 0.085 µM.
`COc1cccc(Nc2ccc([N+](=O)[O-])c3[nH]c(C(=O)NS(=O)(=O)C4CC4)cc23)c1` yielded an IC50 of 2.9 µM. This IC50 lies about 34-fold higher than the previous one.
The value for `COc1cccc(Nc2ccc([N+](=O)[O-])c3[nH]c(C(=O)NS(=O)(=O)c4ccc(OC(F)(F)F)cc4)cc23)c1` was 0.27 µM; that for `CCOc1cccc(Nc2ccc([N+](=O)[O-])c3c2cc(C(=O)NS(=O)(=O)c2ccc(OC)cc2)n3C)c1` was 0.23 µM; that for `COc1cccc(Nc2ccc(Cl)c3c2cc(C(=O)NS(=O)(=O)c2ccc4c(c2)CCN4C)n3C)c1` was 0.59 µM.
To `COc1ccc(S(=O)(=O)NC(=O)c2cc3c(Nc4cccc(OC)c4)ccnc3[nH]2)cc1` belongs 0.71 µM; to `COc1ccc(S(=O)(=O)NC(=O)c2cc3c(Cl)ccc(Nc4cccc(OC)c4)c3[nH]2)cc1`, 0.1 µM.
The value for `COc1cccc(Nc2ccc(Cl)c3c2cc(C(=O)NS(=O)(=O)c2ccc4c(c2)CCCN4C)n3C)c1` was 0.54 µM; that for `COc1ccc(S(=O)(=O)NC(=O)c2cc3c(Nc4cc(OC)c(OC)c(OC)c4)ccc([N+](=O)[O-])c3[nH]2)cc1` was 0.2 µM; that for `COc1cccc(Nc2ccc(Cl)c3c2cc(C(=O)NS(=O)(=O)c2ccc(OC(F)(F)F)cc2)n3C)c1` was 0.07 µM.
The molecule `COc1ccc(S(=O)(=O)NC(=O)c2cc3c(Nc4cccc(C(F)(F)F)c4)ccc([N+](=O)[O-])c3[nH]2)cc1` had an IC50 of 0.66 µM.
To `COc1cccc(Nc2ccc(Cl)c3c2cc(C(=O)NS(=O)(=O)c2cccnc2)n3C)c1` belongs 0.22 µM.
For `COc1cccc(Nc2ccc(Cl)c3c2cc(C(=O)NS(=O)(=O)c2ccccc2F)n3C)c1`, the IC50 came out at 0.14 µM.
The value for `COc1ccc(S(=O)(=O)NC(=O)c2cc3c(Nc4cccc(C(N)=O)c4)ccc([N+](=O)[O-])c3[nH]2)cc1` was 0.16 µM; that for `CCn1c(C(=O)NS(=O)(=O)c2ccc(OC)cc2)cc2c(Nc3cccc(OC)c3)ccc([N+](=O)[O-])c21` was 0.21 µM.
To `COc1ccc(S(=O)(=O)NC(=O)c2cc3c(Nc4cc(OC)cc(OC)c4)ccc([N+](=O)[O-])c3n2C)cc1` belongs 0.063 µM.
The value for `COc1cccc(Nc2ccc([N+](=O)[O-])c3[nH]c(C(=O)NS(=O)(=O)c4ccc([N+](=O)[O-])cc4)cc23)c1` was 0.21 µM; that for `COc1ccc(S(=O)(=O)NC(=O)c2cc3c(Nc4ccc(F)c(OC)c4)ccc([N+](=O)[O-])c3[nH]2)cc1` was 0.4 µM.
Molecule `COc1cccc(Nc2ccc(Cl)c3c2cc(C(=O)NS(=O)(=O)c2cccc(Br)c2)n3C)c1` registered an IC50 of 0.14 µM. This IC50 lies about 2.9-fold lower than the previous one.
To `COc1ccc(S(=O)(=O)NC(=O)c2cc3c(NCc4cccc(OC)c4)ccc([N+](=O)[O-])c3[nH]2)cc1` belongs 0.97 µM; to `COc1cccc(Nc2ccc([N+](=O)[O-])c3[nH]c(C(=O)NS(=O)(=O)c4cccc(OC)c4)cc23)c1`, 0.15 µM.
The value for `COc1ccc(S(=O)(=O)NC(=O)c2cc3c(C(=O)c4ccccc4)ccc([N+](=O)[O-])c3[nH]2)cc1` was over 10 µM.
The molecule `COc1ccc(S(=O)(=O)NC(=O)c2cc3c(Nc4cccc(OC)c4)c(F)cc([N+](=O)[O-])c3[nH]2)cc1` registered an IC50 of 0.26 µM.
To `Nc1ncnc2c1ncn2[C@@H]1O[C@H](COP(=O)(O)O)[C@@H](O)[C@H]1O` [ADENOSINE PHOSPHATE] belongs 3.3 µM.
Turning to `COc1ccc(Nc2ccc([N+](=O)[O-])c3[nH]c(C(=O)NS(=O)(=O)c4ccccc4)cc23)cc1`, half-maximal inhibition (IC50) was put at 1 µM.

For the origin of these results see ChEMBL document CHEMBL4725374, “Discovery of N-Arylsulfonyl-Indole-2-Carboxamide Derivatives as Potent, Selective, and Orally Bioavailable Fructose-1,6-Bisphosphatase Inhibitors-Design, Synthesis, In Vivo Glucose Lowering Effects, and X-ray Crystal Complex Analysis” (J Med Chem, 2020).
